The target in data set [1] is T1, Bromodomain-containing protein 4 (Homo sapiens, UniProt O60885). Description: Displacement of tetra-acetylated histone H4 peptide (1-21) from recombinant human N-terminal His-tagged BRD4 BD2 (349 to 460 residues) expressed in Escherichia coli incubated for 30 mins followed by further incubation with tetra-acetylated histone H4 peptide (1-21) for 30 mins by Alphascreen assay. Background: Alpha assays give light when donor and acceptor beads are brought close together.

The test system of data set [2] is RAW264.7. Description: Inhibition of LPS-induced NO overproduction in mouse RAW264.7 cells at 1 uM incubated for 2 hrs followed by LPS stimulation and measured after 22 hrs by Griess reagent based assay relative to control. To be noted: Mus musculus, RAW264.7. In kind it is functional.
In data set [3] the target is T1, Bromodomain-containing protein 4. Description: Displacement of tetra-acetylated histone H4 peptide (1-21) from recombinant human N-terminal His-tagged BRD4 BD1 (44 to 170 residues) expressed in Escherichia coli incubated for 30 mins followed by further incubation with tetra-acetylated histone H4 peptide (1-21) for 30 mins by Alphascreen assay.
Data set [4] shares this target. Description: Displacement of tetra-acetylated histone H4 peptide (1-21) from recombinant human N-terminal His-tagged BRD4 BD1 (44 to 170 residues) expressed in Escherichia coli assessed as protein activity at 2 uM incubated for 30 mins followed by further incubation with tetra-acetylated histone H4 peptide (1-21) for 30 mins by Alphascreen assay.
The target is the same in data set [5]. Kind of data set: Binding affinity to recombinant human N-terminal His-tagged BRD4 BD1 (44 to 170 residues) expressed in Escherichia coli assessed as change in melting temperature at 10 uM by SYPRO Orange based differential scanning fluorimetry. On the technique in general: Differential scanning fluorimetry follows unfolding on heating by fluorescence.
Data set [6] in a line: Permeability of compound at 10 uM by PAMPA assay. The data set is classed as ADME. Particulars: read-out: permeability. Background: PAMPA measures passive passage across an artificial lipid membrane.
Data set [7] deals with T2, Bromodomain-containing protein 9 (Homo sapiens) (UniProt Q9H8M2).
T2 sequence (whole entry): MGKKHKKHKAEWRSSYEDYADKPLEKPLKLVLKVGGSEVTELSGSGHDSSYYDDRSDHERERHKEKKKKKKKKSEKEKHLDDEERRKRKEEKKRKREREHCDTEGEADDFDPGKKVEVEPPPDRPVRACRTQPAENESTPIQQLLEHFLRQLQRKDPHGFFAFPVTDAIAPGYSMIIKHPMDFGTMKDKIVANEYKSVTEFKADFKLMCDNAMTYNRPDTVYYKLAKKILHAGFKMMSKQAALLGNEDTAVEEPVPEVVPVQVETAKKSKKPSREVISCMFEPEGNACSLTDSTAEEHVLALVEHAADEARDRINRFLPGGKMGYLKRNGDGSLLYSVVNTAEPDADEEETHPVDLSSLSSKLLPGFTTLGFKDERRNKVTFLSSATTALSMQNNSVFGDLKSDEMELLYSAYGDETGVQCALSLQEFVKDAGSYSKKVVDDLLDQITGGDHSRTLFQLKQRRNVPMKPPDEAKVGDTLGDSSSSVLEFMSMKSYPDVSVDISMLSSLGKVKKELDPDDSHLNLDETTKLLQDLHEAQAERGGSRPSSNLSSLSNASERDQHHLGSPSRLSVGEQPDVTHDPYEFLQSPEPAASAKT
Kind of data set: Binding affinity to BRD9 BD1 (unknown origin) assessed as change in melting temperature at 10 uM by SYPRO Orange based differential scanning fluorimetry.

For data set [8], the target named is CREB-binding protein (Homo sapiens) (UniProt Q92793). Description: Binding affinity to CREBBP (unknown origin) assessed as change in melting temperature at 10 uM by SYPRO Orange based differential scanning fluorimetry.
In data set [9] the target is Chromatin remodeling regulator CECR2 (Homo sapiens) (UniProt Q9BXF3). Kind of data set: Binding affinity to CECR2 (unknown origin) assessed as change in melting temperature at 10 uM by SYPRO Orange based differential scanning fluorimetry.

As usually defined, the IC50 is the point on the concentration scale where inhibition reaches its midpoint. What is called inhibition is the drop in the measured response relative to a control, in per cent. As usually defined, the ΔTm is the change in melting temperature against a reference sample.

SMILES strings stand for the structures.

Chromatin remodeling regulator CECR2 (Homo sapiens), sequence (Q9BXF3 whole entry, looked up): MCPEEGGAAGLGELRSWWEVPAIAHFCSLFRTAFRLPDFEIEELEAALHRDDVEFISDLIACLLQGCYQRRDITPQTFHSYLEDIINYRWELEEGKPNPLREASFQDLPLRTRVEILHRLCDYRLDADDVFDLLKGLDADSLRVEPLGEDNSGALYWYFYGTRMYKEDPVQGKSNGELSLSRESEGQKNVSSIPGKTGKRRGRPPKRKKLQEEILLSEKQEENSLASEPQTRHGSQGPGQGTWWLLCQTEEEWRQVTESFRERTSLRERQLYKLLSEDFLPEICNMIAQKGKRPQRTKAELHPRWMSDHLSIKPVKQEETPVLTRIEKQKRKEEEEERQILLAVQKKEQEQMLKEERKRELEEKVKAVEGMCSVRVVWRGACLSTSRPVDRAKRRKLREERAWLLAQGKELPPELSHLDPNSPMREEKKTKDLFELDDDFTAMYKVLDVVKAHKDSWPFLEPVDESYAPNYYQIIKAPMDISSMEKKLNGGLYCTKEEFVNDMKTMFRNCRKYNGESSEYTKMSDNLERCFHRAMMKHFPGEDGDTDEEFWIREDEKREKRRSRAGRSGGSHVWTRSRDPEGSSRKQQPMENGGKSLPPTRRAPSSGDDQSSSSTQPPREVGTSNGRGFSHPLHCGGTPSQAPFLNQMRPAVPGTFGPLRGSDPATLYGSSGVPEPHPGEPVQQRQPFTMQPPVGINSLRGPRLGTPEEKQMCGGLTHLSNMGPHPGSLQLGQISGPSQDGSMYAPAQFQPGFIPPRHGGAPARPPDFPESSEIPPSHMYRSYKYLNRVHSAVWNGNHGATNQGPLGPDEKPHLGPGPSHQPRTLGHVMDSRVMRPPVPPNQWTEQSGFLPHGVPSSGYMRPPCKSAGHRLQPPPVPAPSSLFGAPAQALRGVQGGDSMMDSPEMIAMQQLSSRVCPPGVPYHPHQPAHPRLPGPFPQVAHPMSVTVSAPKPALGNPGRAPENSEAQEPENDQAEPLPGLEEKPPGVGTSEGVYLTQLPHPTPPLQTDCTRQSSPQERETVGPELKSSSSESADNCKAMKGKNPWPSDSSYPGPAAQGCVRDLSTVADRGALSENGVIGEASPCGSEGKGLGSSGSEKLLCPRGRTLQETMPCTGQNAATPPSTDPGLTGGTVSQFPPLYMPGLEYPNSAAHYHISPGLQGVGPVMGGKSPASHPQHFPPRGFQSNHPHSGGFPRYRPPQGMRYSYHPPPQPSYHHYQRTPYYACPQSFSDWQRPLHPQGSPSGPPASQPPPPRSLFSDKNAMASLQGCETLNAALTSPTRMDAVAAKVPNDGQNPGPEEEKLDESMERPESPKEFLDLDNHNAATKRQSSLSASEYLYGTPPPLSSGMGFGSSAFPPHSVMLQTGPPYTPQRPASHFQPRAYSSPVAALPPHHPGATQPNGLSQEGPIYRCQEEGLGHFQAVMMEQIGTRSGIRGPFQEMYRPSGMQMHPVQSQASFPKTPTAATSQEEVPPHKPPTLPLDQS
CREB-binding protein (Homo sapiens), sequence (Q92793 2-2442 limits assumed): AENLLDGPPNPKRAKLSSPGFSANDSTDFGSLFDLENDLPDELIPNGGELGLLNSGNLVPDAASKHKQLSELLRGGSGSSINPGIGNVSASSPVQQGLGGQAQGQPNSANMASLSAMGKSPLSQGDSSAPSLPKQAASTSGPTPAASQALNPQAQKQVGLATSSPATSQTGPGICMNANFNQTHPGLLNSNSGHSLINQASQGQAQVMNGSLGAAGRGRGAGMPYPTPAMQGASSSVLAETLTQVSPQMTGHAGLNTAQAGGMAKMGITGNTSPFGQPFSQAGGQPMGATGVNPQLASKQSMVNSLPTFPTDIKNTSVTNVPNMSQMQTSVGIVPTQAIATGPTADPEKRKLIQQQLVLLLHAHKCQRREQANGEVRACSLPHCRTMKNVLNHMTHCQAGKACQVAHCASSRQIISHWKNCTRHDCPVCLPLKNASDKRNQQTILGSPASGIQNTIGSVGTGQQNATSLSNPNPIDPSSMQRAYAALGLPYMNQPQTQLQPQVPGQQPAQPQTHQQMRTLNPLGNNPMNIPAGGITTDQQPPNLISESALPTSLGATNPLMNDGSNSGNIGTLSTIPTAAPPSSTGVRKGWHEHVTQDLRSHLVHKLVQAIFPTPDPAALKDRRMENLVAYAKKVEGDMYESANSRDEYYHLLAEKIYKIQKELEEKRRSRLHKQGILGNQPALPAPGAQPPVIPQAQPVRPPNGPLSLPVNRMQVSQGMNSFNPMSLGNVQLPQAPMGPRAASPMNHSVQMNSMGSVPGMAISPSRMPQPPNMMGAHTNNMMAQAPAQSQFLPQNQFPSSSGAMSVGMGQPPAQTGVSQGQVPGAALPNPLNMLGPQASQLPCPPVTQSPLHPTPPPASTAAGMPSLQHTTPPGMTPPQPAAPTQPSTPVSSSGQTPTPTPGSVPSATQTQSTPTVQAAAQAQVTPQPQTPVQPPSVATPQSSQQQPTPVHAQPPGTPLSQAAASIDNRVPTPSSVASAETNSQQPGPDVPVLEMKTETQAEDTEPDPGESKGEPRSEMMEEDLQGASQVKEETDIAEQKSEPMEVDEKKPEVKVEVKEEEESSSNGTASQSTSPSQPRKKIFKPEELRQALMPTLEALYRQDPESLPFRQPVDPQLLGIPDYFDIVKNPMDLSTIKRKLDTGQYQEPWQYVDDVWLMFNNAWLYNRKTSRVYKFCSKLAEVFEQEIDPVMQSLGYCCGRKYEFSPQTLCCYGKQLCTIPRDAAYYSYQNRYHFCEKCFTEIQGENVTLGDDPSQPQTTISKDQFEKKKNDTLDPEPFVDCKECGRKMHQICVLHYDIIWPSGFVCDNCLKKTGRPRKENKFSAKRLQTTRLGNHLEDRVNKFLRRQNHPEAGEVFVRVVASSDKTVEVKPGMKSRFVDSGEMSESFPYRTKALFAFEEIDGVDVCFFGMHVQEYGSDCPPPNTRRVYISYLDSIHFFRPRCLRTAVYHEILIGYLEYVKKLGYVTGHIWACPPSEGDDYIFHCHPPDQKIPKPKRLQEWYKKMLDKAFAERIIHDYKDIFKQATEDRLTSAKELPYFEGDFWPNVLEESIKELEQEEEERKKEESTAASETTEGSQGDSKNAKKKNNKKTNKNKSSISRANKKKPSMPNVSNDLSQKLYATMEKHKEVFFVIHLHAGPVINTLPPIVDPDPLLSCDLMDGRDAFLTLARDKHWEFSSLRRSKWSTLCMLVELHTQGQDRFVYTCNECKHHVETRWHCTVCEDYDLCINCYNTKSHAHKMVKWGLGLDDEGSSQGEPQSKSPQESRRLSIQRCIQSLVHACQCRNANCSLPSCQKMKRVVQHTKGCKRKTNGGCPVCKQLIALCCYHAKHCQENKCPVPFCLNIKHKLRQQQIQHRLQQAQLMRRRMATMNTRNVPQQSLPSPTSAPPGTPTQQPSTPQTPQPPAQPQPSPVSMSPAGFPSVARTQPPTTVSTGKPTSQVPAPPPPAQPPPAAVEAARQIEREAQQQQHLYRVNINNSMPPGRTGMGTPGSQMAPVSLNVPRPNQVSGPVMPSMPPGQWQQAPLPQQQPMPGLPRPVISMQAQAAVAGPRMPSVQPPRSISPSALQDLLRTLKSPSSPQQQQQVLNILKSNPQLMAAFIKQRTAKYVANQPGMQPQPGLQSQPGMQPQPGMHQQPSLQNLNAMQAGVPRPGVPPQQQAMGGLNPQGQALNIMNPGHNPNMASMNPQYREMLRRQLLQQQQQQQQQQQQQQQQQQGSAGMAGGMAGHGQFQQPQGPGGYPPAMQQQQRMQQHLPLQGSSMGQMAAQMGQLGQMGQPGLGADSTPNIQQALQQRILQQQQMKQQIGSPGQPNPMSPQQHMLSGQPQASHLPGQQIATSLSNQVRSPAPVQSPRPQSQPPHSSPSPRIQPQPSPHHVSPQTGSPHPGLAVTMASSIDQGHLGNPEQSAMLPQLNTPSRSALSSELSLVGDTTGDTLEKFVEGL

`COc1ccccc1S(=O)(=O)Nc1ccc2c3c(cc(-c4ccco4)nc13)C(=O)N2C`: the IC50 worked out at 982 nM in data set [1] and 35.1 nM in data set [3]. In data set [2], the inhibition at 1 µM came out at 64.9%.
On the same counts, the results for `COc1ccccc1S(=O)(=O)Nc1ccc2c3c(cc(N4CCN(C)CC4)nc13)C(=O)N2C` are 2120 nM, 100 nM and 92.5%.
With `CN1C(=O)c2ccnc3c(NS(=O)(=O)c4ccc(Cl)cc4F)ccc1c23`, the Activity in data set [4] is 87.4%. In addition, the ΔTm in data set [5] was determined as 2.31 °C.
Turning to `CN1C(=O)c2cccc3c(NS(=O)(=O)c4ccc(Cl)cc4)ccc1c23`, the IC50 in [1] came out at 2720 nM; in data set [3], 167 nM. Besides, in [2], the inhibition at 1 µM stood at 15.1%. The thermal shift (ΔTm) in data set [5] came out at 6.5 °C.
Regarding `COc1ccccc1S(=O)(=O)Nc1ccc2c3c(cc(-c4ccc(C)o4)cc13)C(=O)N2C`, the IC50 in data set [1] was found to be 47000 nM; in data set [3], 54.8 nM. For the same molecule, the inhibition at 1 µM in data set [2] turned out to be 58.5%. For the same molecule, the Papp at 10 µM in data set [6] turned out to be 0.006 ×10⁻⁶ cm/s.
On to `CN1C(=O)c2cc(-c3cnn(C4CC4)c3)cc3c(NS(=O)(=O)c4ccc(Cl)cc4Cl)ccc1c23`, for which, in data set [4], the Activity was 61.8%.
Consider `CN1C(=O)c2cccc3c(S(=O)(=O)Nc4ccccc4)ccc1c23`, for which the thermal shift (ΔTm) in data set [5] is 2.19 °C; in data set [7], 0.47 °C; in data set [8], 0.53 °C; in data set [9] it was -0.03 °C.
As for `CN1C(=O)c2cc(-c3cnn(C4CC4)c3)cc3c(NS(=O)(=O)c4ccc(Cl)cc4F)ccc1c23`, the Activity in [4] turned out to be 65.2%.
As to `CC(Nc1ccc2c3c(cccc13)C(=O)N2C)c1ccccc1` (centres undefined), the ΔTm in data set [5] was 3.15 °C; in data set [7] it was 4.33 °C; in [8] it was 0.55 °C; in data set [9], 0.13 °C.
In the case of `COc1ccccc1S(=O)(=O)N(C)c1ccc2c3c(cccc13)C(=O)N2C`, in [4], the Activity came to 90.4%. Further, in data set [5], the ΔTm amounted to 1.06 °C.
In the case of `COc1ccccc1S(=O)(=O)Nc1ccc2c3c(cc(-c4cnn(C)c4)cc13)C(=O)N2C`, the IC50 in data set [1] stood at 435 nM; in data set [3], 17.4 nM. The inhibition at 1 µM in data set [2] is 102%.
For the molecule `CN1C(=O)c2cccc3c(NS(=O)(=O)c4ccc(F)cc4Cl)ccc1c23`, the figures for the IC50 in data set [1] and in data set [3] were 3830 nM and 91.3 nM, respectively. For the same molecule, in [2], the inhibition at 1 µM came out at 98.1%. Also, the ΔTm in data set [5] came to 6.23 °C.
Turning to `COc1ccc(Cl)cc1S(=O)(=O)Nc1ccc2c3c(cc(-c4cnn(C5CC5)c4)cc13)C(=O)N2C`, the Activity in data set [4] stood at 64.9%.
Consider `CN1C(=O)c2cccc3c(NS(=O)(=O)c4c(Cl)cccc4Cl)ccc1c23`, for which, in data set [4], the Activity amounted to 91.1%. The ΔTm in data set [5] was determined as 2.75 °C.
For `CN1C(=O)c2cc(-c3ccoc3)cc3c(NS(=O)(=O)c4ccc(Cl)cc4)ccc1c23`, the Activity in data set [4] is 56.6%.
For `CN1C(=O)c2cccc3c(NS(=O)(=O)c4ccccc4)ccc1c23`, the values for the half-maximal inhibitory concentration (IC50) in data set [1] and in [3] were 2620 nM and 709 nM, respectively. Besides, the ΔTm in data set [5] was 5.72 °C; in [7], 1.93 °C; in data set [8], 1.51 °C; in [9], -0.31 °C.
Consider `COc1ccccc1S(=O)(=O)Nc1ccc2c3c(cccc13)C(=O)N2C`, for which the IC50 in data set [1] stood at 2480 nM; in [3] it was 49.5 nM. Also, the inhibition at 1 µM in data set [2] is 51.4%. In addition, in data set [5], the ΔTm was determined as 8.72 °C.
Consider `COc1ccccc1S(=O)(=O)Nc1ccc2c3c(ccnc13)C(=O)N2C`, for which the half-inhibitory concentration (IC50) came to 4600 nM in data set [1] and 205 nM in [3]. Besides, the inhibition at 1 µM in data set [2] was 94.3%. Moreover, the thermal shift (ΔTm) in data set [5] stood at 7.64 °C.
As to `CN1C(=O)c2cccc3c(NC(=O)c4ccccc4)ccc1c23`, the ΔTm in data set [5] was 2.17 °C; in data set [7], 4.1 °C; in [8] it was 0.93 °C; in [9], 2.17 °C.
As to `CN1C(=O)c2cccc3c(NCc4ccccc4)ccc1c23`, the ΔTm was 2.7 °C in data set [5], -0.9 °C in [7], 1.6 °C in data set [8] and 1.92 °C in data set [9].
Take `Cc1cc(/N=N/c2ccc(S(=O)(=O)Nc3ccc(C#N)cc3)cc2)cc(C)c1O`: the IC50 turned out to be 7070 nM in [1] and 328 nM in [3]. Further, the inhibition at 1 µM in data set [2] stood at 43.4%.
